Measurements reported in paper PMC10176470, “Engaging a Non-catalytic Cysteine Residue Drives Potent and Selective Inhibition of Caspase-6” (Journal of the American Chemical Society, 2023).
Like-named read-outs stand apart in the source and are kept apart here.

Columns and labels:
Type in all cases: cell-based
[1] = molecular target: T1, proteins of HEK293T cells transiently overexpressing caspase-6 (Homo sapiens, UniProt P00390)
T1 sequence (P00390 44-522): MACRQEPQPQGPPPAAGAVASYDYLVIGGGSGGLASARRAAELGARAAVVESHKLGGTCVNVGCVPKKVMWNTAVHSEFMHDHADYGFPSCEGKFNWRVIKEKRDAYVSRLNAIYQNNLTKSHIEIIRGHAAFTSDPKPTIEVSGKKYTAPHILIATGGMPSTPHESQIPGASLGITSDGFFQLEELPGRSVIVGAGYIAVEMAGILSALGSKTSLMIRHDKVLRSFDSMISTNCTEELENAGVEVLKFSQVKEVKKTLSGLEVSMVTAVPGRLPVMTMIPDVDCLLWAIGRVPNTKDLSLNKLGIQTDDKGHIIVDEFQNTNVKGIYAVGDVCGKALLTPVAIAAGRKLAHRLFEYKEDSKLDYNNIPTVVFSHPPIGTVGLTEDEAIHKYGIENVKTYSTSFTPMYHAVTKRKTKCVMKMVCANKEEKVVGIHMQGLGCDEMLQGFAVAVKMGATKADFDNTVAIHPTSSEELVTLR

[2] = molecular target: proteins of HEK293T cells transiently overexpressing caspase-6 (Homo sapiens, UniProt P00492); settings: Probe; protein HPRT1 P00492
Chain of proteins of HEK293T cells transiently overexpressing caspase-6 (Homo sapiens, UniProt P00492) (P00492 whole entry): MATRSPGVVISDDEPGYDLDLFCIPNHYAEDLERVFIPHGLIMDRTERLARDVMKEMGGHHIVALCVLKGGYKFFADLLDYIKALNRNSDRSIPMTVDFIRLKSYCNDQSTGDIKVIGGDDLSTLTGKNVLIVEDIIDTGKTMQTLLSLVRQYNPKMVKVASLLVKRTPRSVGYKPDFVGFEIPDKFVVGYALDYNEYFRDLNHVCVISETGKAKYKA

[3] = molecular target: proteins of HEK293T cells transiently overexpressing caspase-6 (Homo sapiens, UniProt P14868); settings: exp_ref Probe; protein DARS (P14868); analysis C6
Chain of proteins of HEK293T cells transiently overexpressing caspase-6 (Homo sapiens, UniProt P14868) (P14868 whole entry): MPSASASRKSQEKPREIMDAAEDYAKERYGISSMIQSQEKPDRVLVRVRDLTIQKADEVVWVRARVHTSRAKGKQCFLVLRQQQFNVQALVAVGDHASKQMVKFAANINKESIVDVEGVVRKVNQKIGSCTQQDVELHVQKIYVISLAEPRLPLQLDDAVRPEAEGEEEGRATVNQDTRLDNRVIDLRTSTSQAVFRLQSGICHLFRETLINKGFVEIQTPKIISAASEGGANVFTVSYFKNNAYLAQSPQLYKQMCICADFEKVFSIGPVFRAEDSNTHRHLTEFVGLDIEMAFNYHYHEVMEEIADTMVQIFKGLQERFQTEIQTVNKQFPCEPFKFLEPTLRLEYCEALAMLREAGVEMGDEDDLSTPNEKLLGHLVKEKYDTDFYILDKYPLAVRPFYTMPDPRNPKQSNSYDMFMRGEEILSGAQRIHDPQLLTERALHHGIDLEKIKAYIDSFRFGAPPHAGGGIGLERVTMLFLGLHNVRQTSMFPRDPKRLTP

[4] = molecular target: proteins of HEK293T cells transiently overexpressing caspase-6 (Homo sapiens, UniProt P22087); settings: exp_ref Probe; protein FBL (P22087); analysis C6
Chain of proteins of HEK293T cells transiently overexpressing caspase-6 (Homo sapiens, UniProt P22087) (P22087 whole entry): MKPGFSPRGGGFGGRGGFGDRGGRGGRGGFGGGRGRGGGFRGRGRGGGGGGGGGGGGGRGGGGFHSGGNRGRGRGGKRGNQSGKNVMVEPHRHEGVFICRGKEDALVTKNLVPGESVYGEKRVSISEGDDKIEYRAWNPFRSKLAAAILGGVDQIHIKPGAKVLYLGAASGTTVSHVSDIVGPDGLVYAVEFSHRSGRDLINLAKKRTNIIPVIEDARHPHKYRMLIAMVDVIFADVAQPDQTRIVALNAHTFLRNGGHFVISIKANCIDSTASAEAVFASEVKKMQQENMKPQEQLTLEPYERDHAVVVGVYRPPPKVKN

[5] = molecular target: proteins of HEK293T cells transiently overexpressing caspase-6 (Homo sapiens, UniProt P27694); settings: Probe; protein RPA1 P27694
Chain of proteins of HEK293T cells transiently overexpressing caspase-6 (Homo sapiens, UniProt P27694) (P27694 whole entry): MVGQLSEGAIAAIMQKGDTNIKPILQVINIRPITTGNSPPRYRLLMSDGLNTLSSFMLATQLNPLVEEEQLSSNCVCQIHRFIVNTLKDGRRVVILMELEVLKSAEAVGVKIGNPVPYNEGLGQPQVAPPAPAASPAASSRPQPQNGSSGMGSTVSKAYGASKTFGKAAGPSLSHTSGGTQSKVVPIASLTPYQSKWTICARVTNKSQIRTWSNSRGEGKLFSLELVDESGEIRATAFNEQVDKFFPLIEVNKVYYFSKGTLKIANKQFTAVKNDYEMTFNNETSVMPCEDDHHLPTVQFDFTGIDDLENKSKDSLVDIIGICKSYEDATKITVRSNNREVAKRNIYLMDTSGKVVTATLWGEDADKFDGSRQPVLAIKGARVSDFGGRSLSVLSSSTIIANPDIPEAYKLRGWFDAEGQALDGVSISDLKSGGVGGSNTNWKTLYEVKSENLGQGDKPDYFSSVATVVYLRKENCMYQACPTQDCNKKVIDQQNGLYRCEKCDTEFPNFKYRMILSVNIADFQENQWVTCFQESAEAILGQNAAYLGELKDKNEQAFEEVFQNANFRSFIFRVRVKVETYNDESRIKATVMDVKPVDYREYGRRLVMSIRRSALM

[6] = molecular target: proteins of HEK293T cells transiently overexpressing caspase-6 (Homo sapiens, UniProt P37837); settings: Probe; protein TALDO1 P37837
Chain of proteins of HEK293T cells transiently overexpressing caspase-6 (Homo sapiens, UniProt P37837) (P37837 whole entry): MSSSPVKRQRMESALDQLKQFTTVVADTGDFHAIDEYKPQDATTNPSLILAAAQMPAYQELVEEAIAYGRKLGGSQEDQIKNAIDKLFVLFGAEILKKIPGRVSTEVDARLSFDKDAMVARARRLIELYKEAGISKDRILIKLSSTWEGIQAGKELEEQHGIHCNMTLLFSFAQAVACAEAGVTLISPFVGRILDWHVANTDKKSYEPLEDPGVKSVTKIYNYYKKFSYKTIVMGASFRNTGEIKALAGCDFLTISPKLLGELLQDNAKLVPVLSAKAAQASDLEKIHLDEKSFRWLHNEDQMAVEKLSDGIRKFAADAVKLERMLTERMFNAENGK

[7] = molecular target: proteins of HEK293T cells transiently overexpressing caspase-6 (Homo sapiens, UniProt P43034); settings: Probe; protein PAFAH1B1 P43034
Chain of proteins of HEK293T cells transiently overexpressing caspase-6 (Homo sapiens, UniProt P43034) (P43034 whole entry): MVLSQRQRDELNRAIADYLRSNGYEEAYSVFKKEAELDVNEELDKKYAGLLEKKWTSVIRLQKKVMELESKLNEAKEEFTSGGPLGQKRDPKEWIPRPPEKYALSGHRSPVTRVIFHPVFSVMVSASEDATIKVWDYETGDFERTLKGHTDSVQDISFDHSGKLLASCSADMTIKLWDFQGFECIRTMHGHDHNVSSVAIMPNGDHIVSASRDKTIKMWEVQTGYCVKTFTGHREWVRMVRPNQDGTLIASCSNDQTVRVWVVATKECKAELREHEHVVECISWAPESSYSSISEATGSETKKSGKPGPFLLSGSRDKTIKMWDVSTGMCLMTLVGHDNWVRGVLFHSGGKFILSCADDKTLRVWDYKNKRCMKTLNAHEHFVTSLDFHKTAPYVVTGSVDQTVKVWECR

[8] = molecular target: proteins of HEK293T cells transiently overexpressing caspase-6 (Homo sapiens, UniProt P46777); settings: exp_ref Probe; protein RPL5 (P46777); analysis C6
[9] = molecular target: proteins of HEK293T cells transiently overexpressing caspase-6 (Homo sapiens, UniProt P84103); settings: Probe; protein SRSF3 P84103
Chain of proteins of HEK293T cells transiently overexpressing caspase-6 (Homo sapiens, UniProt P84103) (P84103 whole entry): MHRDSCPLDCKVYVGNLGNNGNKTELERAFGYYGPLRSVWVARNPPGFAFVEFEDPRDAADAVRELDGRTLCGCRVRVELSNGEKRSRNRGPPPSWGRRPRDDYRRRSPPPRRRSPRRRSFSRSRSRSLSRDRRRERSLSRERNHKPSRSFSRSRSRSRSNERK

[10] = molecular target: proteins of HEK293T cells transiently overexpressing caspase-6 (Homo sapiens, UniProt Q01082); settings: Probe; protein SPTBN1 Q01082
[11] = molecular target: proteins of HEK293T cells transiently overexpressing caspase-6 (Homo sapiens, UniProt Q16576); settings: exp_ref Probe; protein RBBP7 (Q16576); analysis C6
Chain of proteins of HEK293T cells transiently overexpressing caspase-6 (Homo sapiens, UniProt Q16576) (Q16576 whole entry): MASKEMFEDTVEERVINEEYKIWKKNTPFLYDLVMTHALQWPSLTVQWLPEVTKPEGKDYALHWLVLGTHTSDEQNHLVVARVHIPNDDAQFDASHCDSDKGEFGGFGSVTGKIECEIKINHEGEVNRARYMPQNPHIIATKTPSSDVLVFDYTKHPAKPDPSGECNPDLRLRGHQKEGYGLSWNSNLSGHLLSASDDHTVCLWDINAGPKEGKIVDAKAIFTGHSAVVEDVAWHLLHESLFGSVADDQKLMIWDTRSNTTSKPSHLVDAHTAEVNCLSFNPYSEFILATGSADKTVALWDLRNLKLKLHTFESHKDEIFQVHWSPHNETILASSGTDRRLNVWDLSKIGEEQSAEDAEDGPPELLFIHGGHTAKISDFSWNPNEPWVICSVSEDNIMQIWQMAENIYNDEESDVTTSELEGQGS

[12] = molecular target: proteins of HEK293T cells transiently overexpressing caspase-6 (Homo sapiens, UniProt Q6P2Q9); settings: exp_ref Probe; protein PRPF8 (Q6P2Q9); analysis C6
[13] = molecular target: proteins of HEK293T cells transiently overexpressing caspase-6 (Homo sapiens, UniProt Q99798); settings: exp_ref Probe; protein ACO2 (Q99798); analysis C6
Chain of proteins of HEK293T cells transiently overexpressing caspase-6 (Homo sapiens, UniProt Q99798) (Q99798 28-780): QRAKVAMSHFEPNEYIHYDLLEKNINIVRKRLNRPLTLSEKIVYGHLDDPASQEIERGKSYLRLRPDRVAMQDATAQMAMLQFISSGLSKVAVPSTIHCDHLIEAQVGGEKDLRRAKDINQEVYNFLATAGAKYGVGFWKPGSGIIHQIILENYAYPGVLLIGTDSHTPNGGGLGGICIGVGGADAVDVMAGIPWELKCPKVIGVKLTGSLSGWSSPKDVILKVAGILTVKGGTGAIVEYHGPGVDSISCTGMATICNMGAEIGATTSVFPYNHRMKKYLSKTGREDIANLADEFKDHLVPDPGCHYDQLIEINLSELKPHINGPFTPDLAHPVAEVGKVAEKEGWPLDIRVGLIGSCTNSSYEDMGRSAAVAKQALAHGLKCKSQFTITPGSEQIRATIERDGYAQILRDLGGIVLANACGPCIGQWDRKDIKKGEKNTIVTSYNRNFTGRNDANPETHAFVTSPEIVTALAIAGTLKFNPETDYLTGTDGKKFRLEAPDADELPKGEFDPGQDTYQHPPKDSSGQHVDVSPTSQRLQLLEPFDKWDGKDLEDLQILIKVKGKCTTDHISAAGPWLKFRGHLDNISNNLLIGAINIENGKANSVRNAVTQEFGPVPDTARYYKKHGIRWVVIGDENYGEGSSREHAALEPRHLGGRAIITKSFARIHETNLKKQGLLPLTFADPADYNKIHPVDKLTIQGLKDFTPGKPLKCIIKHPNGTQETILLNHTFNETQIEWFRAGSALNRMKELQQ

[14] = molecular target: proteins of HEK293T cells transiently overexpressing caspase-6 (Homo sapiens, UniProt Q9H7Z7); settings: protein PTGES2 (Q9H7Z7)
Chain of proteins of HEK293T cells transiently overexpressing caspase-6 (Homo sapiens, UniProt Q9H7Z7) (Q9H7Z7 whole entry): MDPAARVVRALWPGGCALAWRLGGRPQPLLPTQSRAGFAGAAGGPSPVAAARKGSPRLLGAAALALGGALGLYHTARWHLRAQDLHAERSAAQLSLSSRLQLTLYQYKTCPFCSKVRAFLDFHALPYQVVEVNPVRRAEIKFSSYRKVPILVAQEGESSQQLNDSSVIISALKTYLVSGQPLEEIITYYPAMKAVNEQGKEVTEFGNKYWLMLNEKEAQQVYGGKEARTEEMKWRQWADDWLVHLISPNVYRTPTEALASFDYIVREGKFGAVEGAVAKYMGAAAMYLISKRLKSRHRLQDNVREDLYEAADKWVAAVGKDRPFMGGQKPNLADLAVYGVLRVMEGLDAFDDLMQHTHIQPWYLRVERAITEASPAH

How did the enrich.exp.med ([1]; Probe, protein GSR P00390) turn out when `C#CCOc1ccc([C@@H]2C[C@@H](C(=O)Nc3ccc(OC(F)(F)F)cc3)CN(S(=O)(=O)C=C)C2)cc1` (relative stereo) [13-t] was run?
Its enrich.exp.med is -1.323.

And the enrich.exp.med.lin ([1]; protein GSR (P00390))?
The enrich.exp.med.lin was 0.3998.

What about the enrich.exp.med.log2 ([1]; protein GSR (P00390)) of the same compound?
The enrich.exp.med.log2 was -1.323.

And the enrich.exp.med [2]?
The enrich.exp.med was -1.112.

And the enrich.exp.med [3]?
The enrich.exp.med was 0.4884.

What about the enrich.exp.med [4] of the same compound?
The enrich.exp.med was 0.8492.

What about the enrich.exp.med [5] of the same compound?
Its enrich.exp.med is -1.323.

What about the enrich.exp.med [6] of the same compound?
Its enrich.exp.med is -1.23.

What about the enrich.exp.med [7] of the same compound?
The enrich.exp.med was -1.169.

And the enrich.exp.med [8]?
Its enrich.exp.med is 0.3142.

What about the enrich.exp.med [9] of the same compound?
Its enrich.exp.med is -0.7077.

What about the enrich.exp.med [10] of the same compound?
Its enrich.exp.med is -1.031.

And the enrich.exp.med [11]?
The enrich.exp.med was 0.6141.

And the enrich.exp.med [12]?
The enrich.exp.med was 0.2125.

What about the enrich.exp.med [13] of the same compound?
The enrich.exp.med was -0.3317.

What about the enrich.exp.med.lin [14] of the same compound?
The enrich.exp.med.lin was 8.188.

What about the enrich.exp.med.log2 [14] of the same compound?
The enrich.exp.med.log2 was 3.034.

What about the enrich.exp.med.lin ([14]; Expt Probe, analysis C6) of the same compound?
Its enrich.exp.med.lin is 8.188.

And the enrich.exp.med.log2 ([14]; Expt Probe, analysis C6)?
Its enrich.exp.med.log2 is 3.034.

And the enrich.exp.med ([14]; exp_ref Probe, analysis C6)?
Its enrich.exp.med is 3.034.
